# In PubChem BioAssay (NCI):
#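 GI50 marks 50% less growth. TGI is the concentration that stops growth completely.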
# Assays:
# Test in all cases: inhibition of tumour cell growth, NCI panel, 384-well format
# 786-0 renal = system: 786-0 renal
# A498 renal = system: A498 renal
# A549 NSCLC = system: A549 NSCLC
# ACHN renal = system: ACHN renal
# CAKI-1 renal = system: CAKI-1 renal
# CCRF-CEM leukemia = system: CCRF-CEM leukemia
# COLO 205 colon = system: COLO 205 colon
# DU-145 prostate = system: DU-145 prostate
# HCC-2998 colon = system: HCC-2998 colon
# HCT-116 colon = system: HCT-116 colon
# HCT-15 colon = system: HCT-15 colon
# HL-60(TB) leukemia = system: HL-60(TB) leukemia
# HOP-62 NSCLC = system: HOP-62 NSCLC
# HOP-92 NSCLC = system: HOP-92 NSCLC
# HT29 colon = system: HT29 colon
# IGROV1 ovarian = system: IGROV1 ovarian
# K-562 leukemia = system: K-562 leukemia
# KM12 colon = system: KM12 colon
# LOX IMVI melanoma = system: LOX IMVI melanoma
# M14 melanoma = system: M14 melanoma
# MALME-3M melanoma = system: MALME-3M melanoma
# MCF7 breast = system: MCF7 breast
# MDA-MB-435 melanoma = system: MDA-MB-435 melanoma
# MDA-MB-468 breast = system: MDA-MB-468 breast
# MOLT-4 leukemia = system: MOLT-4 leukemia
# NCI-H226 lung = system: NCI-H226 lung
# NCI-H23 lung = system: NCI-H23 lung
# NCI-H322M lung = system: NCI-H322M lung
# NCI-H460 NSCLC = system: NCI-H460 NSCLC
# NCI-H522 lung = system: NCI-H522 lung
# NCI/ADR-RES ovarian = system: NCI/ADR-RES ovarian
# OVCAR-3 ovarian = system: OVCAR-3 ovarian
# OVCAR-4 ovarian = system: OVCAR-4 ovarian
# OVCAR-5 ovarian = system: OVCAR-5 ovarian
# OVCAR-8 ovarian = system: OVCAR-8 ovarian
# PC-3 prostate = system: PC-3 prostate
# RPMI-8226 leukemia = system: RPMI-8226 leukemia
# RXF 393 renal = system: RXF 393 renal
# SF-268 CNS = system: SF-268 CNS
# SF-295 CNS = system: SF-295 CNS
# SF-539 CNS = system: SF-539 CNS
# SK-MEL-2 melanoma = system: SK-MEL-2 melanoma
# SK-MEL-28 melanoma = system: SK-MEL-28 melanoma
# SK-MEL-5 melanoma = system: SK-MEL-5 melanoma
# SK-OV-3 ovarian = system: SK-OV-3 ovarian
# SN12C renal = system: SN12C renal
# SNB-19 CNS = system: SNB-19 CNS
# SR leukemia = system: SR leukemia
# SW-620 colon = system: SW-620 colon
# T-47D breast = system: T-47D breast
# TK-10 renal = system: TK-10 renal
# U251 glioblastoma = system: U251 glioblastoma
# UACC-257 melanoma = system: UACC-257 melanoma
# UACC-62 melanoma = system: UACC-62 melanoma
# UO-31 renal = system: UO-31 renal
smiles,measurement,setting,value
CC[C@H](NC(=O)[C@H](C)NC)C(=O)N1C[C@@H](O)C[C@H]1Cc1c(-c2[nH]c3cc(F)ccc3c2C[C@@H]2C[C@H](O)CN2C(=O)[C@H](CC)NC(=O)[C@H](C)NC)[nH]c2cc(F)ccc12,GI50,786-0 renal,> 100 µM
same,TGI,786-0 renal,> 100 µM
same,GI50,A498 renal,> 100 µM
same,TGI,A498 renal,> 100 µM
same,GI50,A549 NSCLC,> 100 µM
same,TGI,A549 NSCLC,> 100 µM
same,GI50,ACHN renal,> 100 µM
same,TGI,ACHN renal,> 100 µM
same,GI50,CAKI-1 renal,> 100 µM
same,TGI,CAKI-1 renal,> 100 µM
same,GI50,CCRF-CEM leukemia,0.028 µM
same,TGI,CCRF-CEM leukemia,16.8 µM
same,GI50,COLO 205 colon,37 µM
same,TGI,COLO 205 colon,> 100 µM
same,GI50,DU-145 prostate,24.2 µM
same,TGI,DU-145 prostate,> 100 µM
same,GI50,HCC-2998 colon,16.6 µM
same,TGI,HCC-2998 colon,49.8 µM
same,GI50,HCT-116 colon,35 µM
same,TGI,HCT-116 colon,> 100 µM
same,GI50,HCT-15 colon,> 100 µM
same,TGI,HCT-15 colon,> 100 µM
same,GI50,HL-60(TB) leukemia,< 0.01 µM
same,TGI,HL-60(TB) leukemia,< 0.01 µM
same,GI50,HOP-62 NSCLC,0.555 µM
same,TGI,HOP-62 NSCLC,8.66 µM
same,GI50,HOP-92 NSCLC,0.785 µM
same,TGI,HOP-92 NSCLC,13.5 µM
same,GI50,HT29 colon,16.4 µM
same,TGI,HT29 colon,39.8 µM
same,GI50,IGROV1 ovarian,> 100 µM
same,TGI,IGROV1 ovarian,> 100 µM
same,GI50,K-562 leukemia,21.9 µM
same,TGI,K-562 leukemia,50.7 µM
same,GI50,KM12 colon,23.8 µM
same,TGI,KM12 colon,74.5 µM
same,GI50,LOX IMVI melanoma,20.1 µM
same,TGI,LOX IMVI melanoma,35.9 µM
same,GI50,M14 melanoma,> 100 µM
same,TGI,M14 melanoma,> 100 µM
same,GI50,MALME-3M melanoma,0.0143 µM
same,TGI,MALME-3M melanoma,0.132 µM
same,GI50,MCF7 breast,15.1 µM
same,TGI,MCF7 breast,31.4 µM
same,GI50,MDA-MB-435 melanoma,0.0982 µM
same,TGI,MDA-MB-435 melanoma,> 100 µM
same,GI50,MDA-MB-468 breast,< 0.01 µM
same,TGI,MDA-MB-468 breast,0.637 µM
same,GI50,MOLT-4 leukemia,16.4 µM
same,TGI,MOLT-4 leukemia,30.2 µM
same,GI50,NCI-H226 lung,> 100 µM
same,TGI,NCI-H226 lung,> 100 µM
same,GI50,NCI-H23 lung,0.0611 µM
same,TGI,NCI-H23 lung,13.1 µM
same,GI50,NCI-H322M lung,> 100 µM
same,TGI,NCI-H322M lung,> 100 µM
same,GI50,NCI-H460 NSCLC,18 µM
same,TGI,NCI-H460 NSCLC,38.1 µM
same,GI50,NCI-H522 lung,0.0544 µM
same,TGI,NCI-H522 lung,12.9 µM
same,GI50,NCI/ADR-RES ovarian,> 100 µM
same,TGI,NCI/ADR-RES ovarian,> 100 µM
same,GI50,OVCAR-3 ovarian,17.9 µM
same,TGI,OVCAR-3 ovarian,> 100 µM
same,GI50,OVCAR-4 ovarian,< 0.01 µM
same,TGI,OVCAR-4 ovarian,< 0.01 µM
same,GI50,OVCAR-5 ovarian,> 100 µM
same,TGI,OVCAR-5 ovarian,> 100 µM
same,GI50,OVCAR-8 ovarian,17 µM
same,TGI,OVCAR-8 ovarian,> 100 µM
same,GI50,PC-3 prostate,63 µM
same,TGI,PC-3 prostate,> 100 µM
same,GI50,RPMI-8226 leukemia,0.102 µM
same,TGI,RPMI-8226 leukemia,0.896 µM
same,GI50,RXF 393 renal,< 0.01 µM
same,TGI,RXF 393 renal,0.0829 µM
same,GI50,SF-268 CNS,28.1 µM
same,TGI,SF-268 CNS,90.6 µM
same,GI50,SF-295 CNS,82 µM
same,TGI,SF-295 CNS,> 100 µM
same,GI50,SF-539 CNS,14.6 µM
same,TGI,SF-539 CNS,32.5 µM
same,GI50,SK-MEL-2 melanoma,< 0.01 µM
same,TGI,SK-MEL-2 melanoma,< 0.01 µM
same,GI50,SK-MEL-28 melanoma,86.3 µM
same,TGI,SK-MEL-28 melanoma,> 100 µM
same,GI50,SK-MEL-5 melanoma,0.112 µM
same,TGI,SK-MEL-5 melanoma,0.438 µM
same,GI50,SK-OV-3 ovarian,< 0.01 µM
same,TGI,SK-OV-3 ovarian,< 0.01 µM
same,GI50,SN12C renal,> 100 µM
same,TGI,SN12C renal,> 100 µM
same,GI50,SNB-19 CNS,> 100 µM
same,TGI,SNB-19 CNS,> 100 µM
same,GI50,SR leukemia,3.4 µM
same,TGI,SR leukemia,19.5 µM
same,GI50,SW-620 colon,57 µM
same,TGI,SW-620 colon,> 100 µM
same,GI50,T-47D breast,> 100 µM
same,TGI,T-47D breast,> 100 µM
same,GI50,TK-10 renal,> 100 µM
same,TGI,TK-10 renal,> 100 µM
same,GI50,U251 glioblastoma,18 µM
same,TGI,U251 glioblastoma,35.7 µM
same,GI50,UACC-257 melanoma,20 µM
same,TGI,UACC-257 melanoma,69.3 µM
same,GI50,UACC-62 melanoma,> 100 µM
same,TGI,UACC-62 melanoma,> 100 µM
same,GI50,UO-31 renal,> 100 µM
same,TGI,UO-31 renal,> 100 µM
